Results taken from paper PMC3548977 (Cancer cell, 2013).

Experiments:
[1] = tested on: Ptch^+/−; p53^−/− MB tumorspheres expressing endogenous SMO^WT; assay: MB tumorsphere proliferation; format: cell-based; conditions: Mus musculus, 96 h, read-out: IC50 anti-proliferative activity
[2] = tested on: P-glycoprotein (PGP); conditions: ref Wang et al., 2002; cited from earlier work
[3] = tested on: Ptch^+/−; p53^−/− mouse MB allograft (SMO^WT); format: in vivo; conditions: day 9 of treatment; ATO 7.5 mg/kg IP qd, itraconazole 75 mg/kg PO bid
[4] = target: murine SMO^E522K (Mus musculus, UniProt P56726, E522K); assay: 8×-GLI-luciferase reporter in SHHN stimulated Smo−/− MEFs expressing SMO^E522K; conditions: GDC-0449 0.5 μM, itraconazole 1.5 μM
[5] = tested on: NVP-LDE225 resistant SMO mutants; format: cell-based, mouse; conditions: itraconazole 1.5 μM, mutant of Figure 7D
[6] = target: SMO^WT (Mus musculus, UniProt P56726); assay: 8×-GLI-luciferase reporter in SHHN stimulated Smo−/− MEFs expressing SMO^WT; format: cell-based
[7] = tested on: Gli1 mRNA; assay: Gli1 mRNA transcription in MB tumorspheres; format: cell-based; conditions: Mus musculus, 24 h, read-out: IC50 for Gli1 mRNA transcription
[8] = tested on: Gli1 mRNA; assay: Gli1 mRNA expression in treated SMO^WT MB allografts; format: in vivo, mouse; conditions: treated 3 days, harvested 4 h after last dose

Sequence of SMO^WT (P56726 33-793): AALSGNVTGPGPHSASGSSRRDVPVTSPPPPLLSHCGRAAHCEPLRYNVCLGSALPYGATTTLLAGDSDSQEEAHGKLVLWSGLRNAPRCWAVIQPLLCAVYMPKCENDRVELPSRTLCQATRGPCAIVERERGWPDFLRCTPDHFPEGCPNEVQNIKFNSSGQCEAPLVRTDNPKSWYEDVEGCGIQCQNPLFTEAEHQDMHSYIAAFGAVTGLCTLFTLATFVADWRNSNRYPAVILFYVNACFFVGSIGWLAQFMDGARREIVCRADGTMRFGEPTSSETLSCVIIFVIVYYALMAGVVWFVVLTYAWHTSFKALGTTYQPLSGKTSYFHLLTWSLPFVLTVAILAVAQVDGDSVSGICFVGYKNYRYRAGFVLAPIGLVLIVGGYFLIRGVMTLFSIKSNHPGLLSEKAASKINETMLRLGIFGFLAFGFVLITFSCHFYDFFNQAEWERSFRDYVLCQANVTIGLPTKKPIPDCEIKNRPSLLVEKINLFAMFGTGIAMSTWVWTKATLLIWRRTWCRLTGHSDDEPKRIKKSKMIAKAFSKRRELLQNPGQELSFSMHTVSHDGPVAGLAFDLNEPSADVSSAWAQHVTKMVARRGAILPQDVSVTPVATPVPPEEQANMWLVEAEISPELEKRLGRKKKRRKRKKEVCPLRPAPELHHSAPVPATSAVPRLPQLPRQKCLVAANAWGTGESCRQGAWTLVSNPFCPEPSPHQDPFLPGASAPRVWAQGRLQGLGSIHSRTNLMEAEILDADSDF
Sequence of murine SMO^E522K (P56726 33-793 E522K): as the sequence (P56726 33-793) above, with E490K counted along it

CCC(C)n1ncn(-c2ccc(N3CCN(c4ccc(OCC5COC(Cn6cncn6)(c6ccc(Cl)cc6Cl)O5)cc4)CC3)cc2)c1=O (stereo not drawn) [itraconazole]
IC50 [1]: 55 nM
Inhibition of PGP [2]: potent inhibitor
Tumor growth inhibition compared to vehicle-treated tumors [3]: 96%
Inhibition of SMO^E522K activity [4]: almost completely inhibited
Inhibition of mutant activity [5]: ~ 60%
IC50 [6]: ~600 nM
Inhibition of relative Hh pathway activity (8×-GLI-luciferase reporter) ([6]; SHHN stimulated Smo−/− MEFs expressing SMO^WT): full antagonist
IC50 [7]: ~100 nM
Inhibition of tumor Gli1 mRNA expression compared to vehicle-treated tumors [8]: 55%
